Measured values reported in the supplement of paper PMC5908809.

Legend:
[1] = tested on: normal NK cells expanded with K562-aAPC; assay: percent inhibition of viability; higher = more inhibition; conditions: 72 h, IL-2 2.5 ng/mL
Protocol: (§1)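 Drug sensitivity and resistance testing on K562-aAPC-expanded normal NK cells: 5 concentrations (10-fold steps over a 10,000-fold range), 72 h at 37 °C, viability by CellTiter-Glo normalised to DMSO and benzethonium chloride controls; DSS from the fitted curve.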

DERL-7 (IL-2 2.5 ng/mL) [2] = assay: as above; conditions: 72 h
IMC-1 (IL-2 20 ng/mL) [3] = assay: as above; conditions: 72 h
KAI3 (IL-2 2.5 ng/mL) [4] = assay: as above; conditions: 72 h
KHYG-1 (IL-2 2.5 ng/mL) [5] = assay: as above; conditions: 72 h
NK-92 (IL-2 2.5 ng/mL) [6] = assay: as above; conditions: 72 h
NK-YS (IL-2 2.5 ng/mL) [7] = assay: as above; conditions: 72 h
NKL (IL-2 2.5 ng/mL) [8] = assay: as above; conditions: 72 h
SNK-6 (IL-2 2.5 ng/mL) [9] = assay: as above; conditions: 72 h
YT (IL-2 2.5 ng/mL) [10] = assay: as above; conditions: 72 h
[11] = tested on: normal primary NK cells, pool 1 (3 donors) (IL-2 2.5 ng/mL); assay: as above; conditions: 72 h
[12] = tested on: normal primary NK cells, pool 1 (3 donors), resting (IL-2 0 ng/mL); assay: as above; conditions: 72 h
[13] = tested on: normal primary NK cells, pool 2 (3 donors) (IL-2 2.5 ng/mL); assay: as above; conditions: 72 h
[14] = tested on: normal primary NK cells, pool 3 (3 donors) (IL-2 2.5 ng/mL); assay: as above; conditions: 72 h
[15] = tested on: normal NK cells expanded with K562-aAPC; assay: drug sensitivity score (DSS) (DSS units); higher = more sensitive; extreme values may be limits of the assay; conditions: 72 h; IL-2 2.5 ng/mL
Protocol: as §1

DERL-7 (IL-2 2.5 ng/mL) [16] = assay: as above; conditions: 72 h
IMC-1 (IL-2 20 ng/mL) [17] = assay: as above; conditions: 72 h
KAI3 (IL-2 2.5 ng/mL) [18] = assay: as above; conditions: 72 h
KHYG-1 (IL-2 2.5 ng/mL) [19] = assay: as above; conditions: 72 h
NK-92 (IL-2 2.5 ng/mL) [20] = assay: as above; conditions: 72 h
NK-YS (IL-2 2.5 ng/mL) [21] = assay: as above; conditions: 72 h
NKL (IL-2 2.5 ng/mL) [22] = assay: as above; conditions: 72 h
SNK-6 (IL-2 2.5 ng/mL) [23] = assay: as above; conditions: 72 h
YT (IL-2 2.5 ng/mL) [24] = assay: as above; conditions: 72 h
[25] = tested on: normal primary NK cells, pool 1 (3 donors) (IL-2 2.5 ng/mL); assay: as above; conditions: 72 h
[26] = tested on: normal primary NK cells, pool 1 (3 donors), resting (IL-2 0 ng/mL); assay: as above; conditions: 72 h
[27] = tested on: normal primary NK cells, pool 2 (3 donors) (IL-2 2.5 ng/mL); assay: as above; conditions: 72 h
[28] = tested on: normal primary NK cells, pool 3 (3 donors) (IL-2 2.5 ng/mL); assay: as above; conditions: 72 h

COc1cc2ncnc(Oc3cccc(NC(=O)Nc4cc(C(C)(C)C(F)(F)F)on4)c3)c2cc1OC (max concentration tested 10000 nM)
percent inhibition of viability [%]
Conditions	1 nM	10 nM	100 nM	1000 nM	10000 nM
DERL-7 (IL-2 2.5 ng/mL) [2]	-5.16	6.23	-3	4.56	-7.99
IMC-1 (IL-2 20 ng/mL) [3]	-1.62	-0.53	0.44	-4.34	6.15
KAI3 (IL-2 2.5 ng/mL) [4]	0.98	-5.32	2.9	6.52	22.6
KHYG-1 (IL-2 2.5 ng/mL) [5]	-4.24	2.96	2.93	12.8	22.6
NK-92 (IL-2 2.5 ng/mL) [6]	-0.01	2.35	-2.76	14.8	28.1
NK-YS (IL-2 2.5 ng/mL) [7]	-5.12	-3.89	6.64	10.2	22.5
NKL (IL-2 2.5 ng/mL) [8]	4.1	2.39	15.8	41.7	42.7
SNK-6 (IL-2 2.5 ng/mL) [9]	-21	-20.4	-14.8	-14.3	-12
YT (IL-2 2.5 ng/mL) [10]	-6.09	0.07	-0.35	27.3	17.8
[1]	-1.51	-5.86	-2.54	20.8	24.9
[11]	-8.45	9.57	-3.9	2.93	0.51
[12]	-30.4	6.49	-14	-6.06	-6.31
[13]	-11.8	4.36	-8.21	-2.04	-8.58
[14]	-10.2	8.96	-2.46	-8.5	-3.67

Conditions	drug sensitivity score
DERL-7 (IL-2 2.5 ng/mL) [16]	0
IMC-1 (IL-2 20 ng/mL) [17]	0
KAI3 (IL-2 2.5 ng/mL) [18]	1.44
KHYG-1 (IL-2 2.5 ng/mL) [19]	1.77
NK-92 (IL-2 2.5 ng/mL) [20]	2.92
NK-YS (IL-2 2.5 ng/mL) [21]	1.47
NKL (IL-2 2.5 ng/mL) [22]	9.3
SNK-6 (IL-2 2.5 ng/mL) [23]	0
YT (IL-2 2.5 ng/mL) [24]	4.37
[15]	3.18
[25]	0
[26]	0
[27]	0
[28]	0

CNNCc1ccc(C(=O)NC(C)C)cc1 [Procarbazine] (max concentration tested 10000 nM)
percent inhibition of viability [%]
Conditions	1 nM	10 nM	100 nM	1000 nM	10000 nM
DERL-7 (IL-2 2.5 ng/mL) [2]	-5.96	-2.97	-1.35	-4.02	-1.33
IMC-1 (IL-2 20 ng/mL) [3]	-5.39	-4.18	-3.85	-5.41	-5.74
KAI3 (IL-2 2.5 ng/mL) [4]	-11.1	-15.3	-9.69	-2.54	-7.53
KHYG-1 (IL-2 2.5 ng/mL) [5]	-6.92	-2.1	-5.13	-6.74	-9.22
NK-92 (IL-2 2.5 ng/mL) [6]	-19	-5.13	-2.68	-0.23	-12.9
NK-YS (IL-2 2.5 ng/mL) [7]	-8.8	-5.02	-3.78	-7.11	-5.77
NKL (IL-2 2.5 ng/mL) [8]	-15.8	-21.9	-20.6	-22.9	-16.7
SNK-6 (IL-2 2.5 ng/mL) [9]	-3.98	12.4	2.31	3.29	-21.5
YT (IL-2 2.5 ng/mL) [10]	-8.77	-3.75	-6.96	-5.83	-8.88
[1]	-2.09	-5.44	-0.68	-4.82	-4.8
[11]	-3.19	-6.37	-6.53	-1.7	-5.09
[12]	-10.9	-14.4	-17.2	1.81	-7.55
[13]	-13.7	-3.7	-4.8	-10	-2.4
[14]	-11.8	-5.14	-5.98	-4.43	-4

Conditions	drug sensitivity score
DERL-7 (IL-2 2.5 ng/mL) [16]	0
IMC-1 (IL-2 20 ng/mL) [17]	0
KAI3 (IL-2 2.5 ng/mL) [18]	0
KHYG-1 (IL-2 2.5 ng/mL) [19]	0
NK-92 (IL-2 2.5 ng/mL) [20]	0
NK-YS (IL-2 2.5 ng/mL) [21]	0
NKL (IL-2 2.5 ng/mL) [22]	0
SNK-6 (IL-2 2.5 ng/mL) [23]	0
YT (IL-2 2.5 ng/mL) [24]	0
[15]	0
[25]	0
[26]	0
[27]	0
[28]	0

CO[C@@H]1[C@H](N(C)C(=O)c2ccccc2)C[C@H]2O[C@]1(C)n1c3ccccc3c3c4c(c5c6ccccc6n2c5c31)C(=O)NC4 [Midostaurin] (max concentration tested 10000 nM)
percent inhibition of viability [%]
Conditions	1 nM	10 nM	100 nM	1000 nM	10000 nM
DERL-7 (IL-2 2.5 ng/mL) [2]	2.78	1.24	18.5	93.3	98.4
IMC-1 (IL-2 20 ng/mL) [3]	-6.1	-6.16	-11.8	87.9	100
KAI3 (IL-2 2.5 ng/mL) [4]	0.66	3.14	21.1	89.4	91.2
KHYG-1 (IL-2 2.5 ng/mL) [5]	2.07	-3.07	17	105	99.1
NK-92 (IL-2 2.5 ng/mL) [6]	7.3	4.05	7.33	80.9	89.5
NK-YS (IL-2 2.5 ng/mL) [7]	1.77	2.14	11.2	65.2	78.6
NKL (IL-2 2.5 ng/mL) [8]	-4.72	-9.81	28.3	79.7	77.5
SNK-6 (IL-2 2.5 ng/mL) [9]	-0.77	8.75	42.7	95.2	97.3
YT (IL-2 2.5 ng/mL) [10]	4.08	0.3	9.56	51.4	69.3
[1]	-0.81	-0.07	14.2	93.4	95.7
[11]	-13	-12.2	25.8	79.6	88.2
[12]	-2.01	-12	7.17	29	62.3
[13]	-14.8	-10.1	-0.23	76.7	85.8
[14]	-7.31	-6.65	1.51	63.5	83

Conditions	drug sensitivity score
DERL-7 (IL-2 2.5 ng/mL) [16]	19.5
IMC-1 (IL-2 20 ng/mL) [17]	15.6
KAI3 (IL-2 2.5 ng/mL) [18]	19.3
KHYG-1 (IL-2 2.5 ng/mL) [19]	20.9
NK-92 (IL-2 2.5 ng/mL) [20]	15.8
NK-YS (IL-2 2.5 ng/mL) [21]	13.5
NKL (IL-2 2.5 ng/mL) [22]	18.5
SNK-6 (IL-2 2.5 ng/mL) [23]	22.2
YT (IL-2 2.5 ng/mL) [24]	10.8
[15]	19.3
[25]	18
[26]	6.7
[27]	14
[28]	12.1

CO[C@H]1C[C@@H]2CC[C@@H](C)[C@@](O)(O2)C(=O)C(=O)N2CCCC[C@H]2C(=O)O[C@H]([C@H](C)C[C@@H]2CC[C@@H](O)[C@H](OC)C2)CC(=O)[C@H](C)/C=C(\C)[C@@H](O)[C@@H](OC)C(=O)[C@H](C)C[C@H](C)/C=C/C=C/C=C/1C [Sirolimus] (max concentration tested 100 nM)
percent inhibition of viability [%]
Conditions	0.01 nM	0.1 nM	1 nM	10 nM	100 nM
DERL-7 (IL-2 2.5 ng/mL) [2]	1.91	1.51	7.44	38.3	55.7
IMC-1 (IL-2 20 ng/mL) [3]	-3.21	1.18	-3.68	-15.7	-35.8
KAI3 (IL-2 2.5 ng/mL) [4]	-2.33	-1.67	15.9	44.7	54.9
KHYG-1 (IL-2 2.5 ng/mL) [5]	-2.67	2.99	5.43	47.1	73.8
NK-92 (IL-2 2.5 ng/mL) [6]	-4.22	6.09	10.4	22	41.1
NK-YS (IL-2 2.5 ng/mL) [7]	-0.35	1.64	29.4	54.6	58.5
NKL (IL-2 2.5 ng/mL) [8]	10.2	24.2	45.2	58.8	68.7
SNK-6 (IL-2 2.5 ng/mL) [9]	7.11	11.7	26.8	58	53.6
YT (IL-2 2.5 ng/mL) [10]	-0.6	3.68	8.62	48.9	50
[1]	-3.63	-1.36	3.81	13.8	18.7
[11]	0.77	-8.98	3.92	5.36	11.1
[12]	1.62	-12	3.7	1.9	13.7
[13]	-8.36	2	15.3	16.1	24.9
[14]	-9.48	-6.09	3.92	6.87	10.3

Conditions	drug sensitivity score
DERL-7 (IL-2 2.5 ng/mL) [16]	8.02
IMC-1 (IL-2 20 ng/mL) [17]	0
KAI3 (IL-2 2.5 ng/mL) [18]	10
KHYG-1 (IL-2 2.5 ng/mL) [19]	9.94
NK-92 (IL-2 2.5 ng/mL) [20]	4.93
NK-YS (IL-2 2.5 ng/mL) [21]	13.8
NKL (IL-2 2.5 ng/mL) [22]	19.3
SNK-6 (IL-2 2.5 ng/mL) [23]	13.6
YT (IL-2 2.5 ng/mL) [24]	10.3
[15]	1.68
[25]	0.01
[26]	0.29
[27]	3.82
[28]	0
